In ChEMBL document CHEMBL1949595, “Fluorinated ΔF508-CFTR correctors and potentiators for PET imaging” (Bioorg Med Chem Lett, 2012):

What was measured:
[1] = target: Cystic fibrosis transmembrane conductance regulator (Homo sapiens, UniProt P13569, F508DEL); test: Corrector activity at human CFTR delta F508 mutant expressed in rat FRT cells coexpressing fluorescent protein YFP-H148Q/1152L by fluorescence assay; format: cell-based
[2] = Potentiation activity at human CFTR delta F508 mutant-mediated iodine flux expressed in rat FRT cells coexpressing fluorescent protein YFP-H148Q/1152L by fluorescence assay; format: cell-based

Sequence of Cystic fibrosis transmembrane conductance regulator (P13569 as listed by the source): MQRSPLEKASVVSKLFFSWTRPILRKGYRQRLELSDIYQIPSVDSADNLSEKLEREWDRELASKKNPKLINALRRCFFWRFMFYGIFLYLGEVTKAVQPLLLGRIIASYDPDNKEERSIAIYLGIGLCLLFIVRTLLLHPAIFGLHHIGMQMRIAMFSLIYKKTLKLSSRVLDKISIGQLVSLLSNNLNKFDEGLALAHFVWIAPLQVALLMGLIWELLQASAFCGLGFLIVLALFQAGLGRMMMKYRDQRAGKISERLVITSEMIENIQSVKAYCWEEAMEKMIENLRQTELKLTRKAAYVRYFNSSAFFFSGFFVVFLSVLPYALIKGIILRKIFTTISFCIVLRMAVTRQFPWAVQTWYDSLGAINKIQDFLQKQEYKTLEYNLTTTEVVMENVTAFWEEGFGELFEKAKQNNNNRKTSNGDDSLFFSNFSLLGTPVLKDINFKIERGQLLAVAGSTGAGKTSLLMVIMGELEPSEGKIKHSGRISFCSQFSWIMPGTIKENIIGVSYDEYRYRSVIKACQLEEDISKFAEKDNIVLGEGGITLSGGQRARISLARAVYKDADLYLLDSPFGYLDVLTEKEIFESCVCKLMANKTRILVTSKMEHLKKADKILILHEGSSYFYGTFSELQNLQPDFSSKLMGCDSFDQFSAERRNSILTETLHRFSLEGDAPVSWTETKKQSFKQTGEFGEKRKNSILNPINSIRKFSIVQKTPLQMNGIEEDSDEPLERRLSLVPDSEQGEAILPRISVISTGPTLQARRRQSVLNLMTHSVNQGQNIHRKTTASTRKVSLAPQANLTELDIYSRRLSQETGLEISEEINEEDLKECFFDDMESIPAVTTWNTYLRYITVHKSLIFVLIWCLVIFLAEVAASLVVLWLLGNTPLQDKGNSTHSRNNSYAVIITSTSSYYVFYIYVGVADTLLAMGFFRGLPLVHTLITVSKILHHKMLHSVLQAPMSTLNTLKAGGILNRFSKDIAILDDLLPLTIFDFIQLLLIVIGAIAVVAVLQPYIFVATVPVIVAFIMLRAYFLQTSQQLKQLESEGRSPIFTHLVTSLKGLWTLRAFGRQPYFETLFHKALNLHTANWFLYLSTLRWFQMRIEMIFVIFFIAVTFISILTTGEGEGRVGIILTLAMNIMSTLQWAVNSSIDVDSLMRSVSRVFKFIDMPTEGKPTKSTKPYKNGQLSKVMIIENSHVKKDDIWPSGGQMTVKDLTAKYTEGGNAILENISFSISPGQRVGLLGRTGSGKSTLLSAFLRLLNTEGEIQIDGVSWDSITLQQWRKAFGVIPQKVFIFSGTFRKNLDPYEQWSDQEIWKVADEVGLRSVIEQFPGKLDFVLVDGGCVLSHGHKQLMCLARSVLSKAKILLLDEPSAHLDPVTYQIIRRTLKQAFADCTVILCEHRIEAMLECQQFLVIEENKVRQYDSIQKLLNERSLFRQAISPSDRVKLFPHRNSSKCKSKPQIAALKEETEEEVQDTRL

Row | EC50 [1] | EC50 [2] | Compound
1 | 2300 nM | – | COc1ccc(Cl)cc1Nc1nc(-c2sc(NC(=O)c3ccccc3)nc2C)cs1
2 | – | 1100 nM | CN(C(=O)Cc1c[nH]c2ccccc12)[C@H](C(=O)Nc1ccc(-n2cc(CCC[19F])nn2)cc1)c1ccccc1
3 | 1400 nM | – | COc1ccc(Cl)cc1Nc1nc(-c2sc(NC(=O)c3ccc([19F])cc3)nc2C)cs1
4 | 1400 nM | – | Cc1nc(NC(=O)c2ccc([19F])cc2)sc1-c1csc(Nc2cc(N(C)C)ccc2Cl)n1
5 | – | 90 nM | CN(C(=O)Cc1c[nH]c2ccccc12)[C@H](C(=O)Nc1ccc([19F])cc1)c1ccccc1
